A word on the Dmax: it is the greatest extent of degradation seen. What is called DC50 is the concentration giving 50% degradation. A higher DC50 goes with a less potent degrader.

One assay concerns Mino cells. In words: Antiproliferative effect, MTS cell viability assay, Mino cells. It is filed as cell-based. To be noted: Homo sapiens, MINO, Mino mantle cell lymphoma cells; read-out: IC50 (anti-proliferation) Mino cells. The method, boiled down:
(§1)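 Tested at six concentrations (0 to 10 μM in tenfold steps), 72 h; viability by MTS, A490.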

In another assay the test system is JeKo-1 cells. Kind of assay: Antiproliferative effect, MTS cell viability assay, JeKo-1 cells. It counts as cell-based. To be noted: Homo sapiens; JeKo-1 mantle cell lymphoma cells; read-out: IC50 (anti-proliferation) JeKO-1 cells. The method, boiled down:
as §1
Background: Tetrazolium dyes change colour on reduction, which living cells bring about.

A further assay addresses BTK (Homo sapiens, UniProt Q06187). In words: Degradation of BTK protein in Namalwa cells (Western blot; DC50, Dmax). To be noted: for DC50: BTK degradation, cell line not given.

Chain of BTK (Q06187 whole entry): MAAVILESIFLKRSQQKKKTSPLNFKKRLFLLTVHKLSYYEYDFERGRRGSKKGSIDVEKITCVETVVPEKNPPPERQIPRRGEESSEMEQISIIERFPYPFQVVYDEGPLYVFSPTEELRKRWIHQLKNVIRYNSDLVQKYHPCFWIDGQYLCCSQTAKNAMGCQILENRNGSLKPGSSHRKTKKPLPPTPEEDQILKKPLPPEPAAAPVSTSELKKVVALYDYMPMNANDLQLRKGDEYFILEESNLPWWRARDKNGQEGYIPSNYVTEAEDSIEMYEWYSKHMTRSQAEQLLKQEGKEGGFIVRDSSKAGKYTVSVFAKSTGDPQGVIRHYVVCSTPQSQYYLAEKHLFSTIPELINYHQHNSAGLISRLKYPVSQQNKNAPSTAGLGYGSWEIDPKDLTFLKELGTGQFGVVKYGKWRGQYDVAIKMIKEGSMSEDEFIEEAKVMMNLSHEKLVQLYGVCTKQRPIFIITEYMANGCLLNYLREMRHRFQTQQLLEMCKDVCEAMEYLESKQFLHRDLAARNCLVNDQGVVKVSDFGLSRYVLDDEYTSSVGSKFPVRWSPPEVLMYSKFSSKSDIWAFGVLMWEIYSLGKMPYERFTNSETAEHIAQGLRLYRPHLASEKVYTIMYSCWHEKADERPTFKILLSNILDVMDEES

`NC(=O)c1c(-c2ccc(Oc3ccccc3)cc2)nn2c1NCCC2C1CCN(C2CCN(C(=O)N3CCN(C4CCN(c5ccc6c(c5)CN(C5CCC(=O)NC5=O)C6=O)CC4)CC3)CC2)CC1` (centres unmarked) [Compound 346, 7-(1′-(4-(1-(2-(2,6-dioxopiperidin-3-yl)-1-oxoisoindolin-5-yl)piperidin-4-yl)piperazine-1-carbonyl)-[1,4′-bipiperidin]-4-yl)-2-(4-phenoxyphenyl)-4,5,6,7-tetrahydropyrazolo[1,5-a]pyrimidine-3-carboxamide]: the IC50 in the assay on Mino cells is under 1000 nM. For the same molecule, in the assay on JeKo-1 cells, the IC50 lay within 1000 to 10000 nM. On BTK, this molecule displayed a Dmax of over 90% and a DC50 of under 10 nM.
For `NC(=O)c1c(-c2ccc(Oc3ccccc3)cc2)nn2c1NCCC2C1CCN(C2CCN(C(=O)N3CCC(N4CCC(c5ccc6c(c5)CN(C5CCC(=O)NC5=O)C6=O)CC4)CC3)CC2)CC1` (centres unmarked) [Compound 348, 7-(1′-(4-(2-(2,6-dioxopiperidin-3-yl)-1-oxoisoindolin-5-yl)-[1,4′-bipiperidine]-1′-carbonyl)-[1,4′-bipiperidin]-4-yl)-2-(4-phenoxyphenyl)-4,5,6,7-tetrahydropyrazolo[1,5-a]pyrimidine-3-carboxamide] the same measures were under 1000 nM, under 1000 nM, over 90% and under 10 nM.
The corresponding values for `NC(=O)c1c(-c2ccc(Oc3ccccc3)cc2)nn2c1NCCC2C1CCN(C2CCN(C(=O)N3CCC(CN4CCN(c5ccc6c(c5)C(=O)N(C5CCC(=O)NC5=O)C6=O)CC4)CC3)CC2)CC1` (centres unmarked) [Compound 349, 7-(1′-(4-((4-(2-(2,6-dioxopiperidin-3-yl)-1,3-dioxoisoindolin-5-yl)piperazin-1-yl)methyl)piperidine-1-carbonyl)-[1,4′-bipiperidin]-4-yl)-2-(4-phenoxyphenyl)-4,5,6,7-tetrahydropyrazolo[1,5-a]pyrimidine-3-carboxamide] are 1000 to 10000 nM, 1000 to 10000 nM, over 90% and 10 to 50 nM.
For `NC(=O)c1c(-c2ccc(Oc3ccccc3)cc2)nn2c1NCCC2C1CCN(C2CCN(C(=O)N3CCC(CN4CCN(c5ccc6c(c5)CN(C5CCC(=O)NC5=O)C6=O)CC4)CC3)CC2)CC1` (centres unmarked) [Compound 350, 7-(1′-(4-((4-(2-(2,6-dioxopiperidin-3-yl)-1-oxoisoindolin-5-yl)piperazin-1-yl)methyl)piperidine-1-carbonyl)-[1,4′-bipiperidin]-4-yl)-2-(4-phenoxyphenyl)-4,5,6,7-tetrahydropyrazolo[1,5-a]pyrimidine-3-carboxamide] the same measures were under 1000 nM, 1000 to 10000 nM, over 90% and under 10 nM.
For `NC(=O)c1c(-c2ccc(Oc3ccccc3)cc2)nn2c1NCCC2C1CCN(C2CCN(C(=O)N3CCN(CC4CCN(c5ccc6c(c5)C(=O)N(C5CCC(=O)NC5=O)C6=O)CC4)CC3)CC2)CC1` (centres unmarked) [Compound 351, 7-(1′-(4-((1-(2-(2,6-dioxopiperidin-3-yl)-1,3-dioxoisoindolin-5-yl)piperidin-4-yl)methyl)piperazine-1-carbonyl)-[1,4′-bipiperidin]-4-yl)-2-(4-phenoxyphenyl)-4,5,6,7-tetrahydropyrazolo[1,5-a]pyrimidine-3-carboxamide], the IC50 in the assay on Mino cells was under 1000 nM. Further, in the assay on JeKo-1 cells, the IC50 was 1000 to 10000 nM. Also, on BTK, the Dmax is over 90% and the 50% degradation concentration (DC50) is 10 to 50 nM.
As for `NC(=O)c1c(-c2ccc(Oc3ccccc3)cc2)nn2c1NCCC2C1CCN(C2CCN(C(=O)N3CCN(CC4CCN(c5ccc6c(c5)CN(C5CCC(=O)NC5=O)C6=O)CC4)CC3)CC2)CC1` (centres unmarked) [Compound 352, 7-(1′-(4-((1-(2-(2,6-dioxopiperidin-3-yl)-1-oxoisoindolin-5-yl)piperidin-4-yl)methyl)piperazine-1-carbonyl)-[1,4′-bipiperidin]-4-yl)-2-(4-phenoxyphenyl)-4,5,6,7-tetrahydropyrazolo[1,5-a]pyrimidine-3-carboxamide], in the assay with Mino cells, the IC50 is under 1000 nM. Also, in the assay on JeKo-1 cells, the IC50 was 1000 to 10000 nM. At BTK, this molecule displayed a Dmax of over 90% and a DC50 of under 10 nM.
The corresponding values for `NC(=O)c1c(-c2ccc(Oc3ccccc3)cc2)nn2c1NCCC2C1CCN(C2CCN(C(=O)N3CCC(CC4CCN(c5ccc6c(c5)C(=O)N(C5CCC(=O)NC5=O)C6=O)CC4)CC3)CC2)CC1` (centres unmarked) [Compound 353, 7-(1′-(4-((1-(2-(2,6-dioxopiperidin-3-yl)-1,3-dioxoisoindolin-5-yl)piperidin-4-yl)methyl)piperidine-1-carbonyl)-[1,4′-bipiperidin]-4-yl)-2-(4-phenoxyphenyl)-4,5,6,7-tetrahydropyrazolo[1,5-a]pyrimidine-3-carboxamide] are under 1000 nM, 1000 to 10000 nM, over 90% and 10 to 50 nM.
On to `NC(=O)c1c(-c2ccc(Oc3ccccc3)cc2)nn2c1NCCC2C1CCN(C2CCN(C(=O)N3CCC(CC4CCN(c5ccc6c(c5)CN(C5CCC(=O)NC5=O)C6=O)CC4)CC3)CC2)CC1` (centres unmarked) [Compound 354, 7-(1′-(4-((1-(2-(2,6-dioxopiperidin-3-yl)-1-oxoisoindolin-5-yl)piperidin-4-yl)methyl)piperidine-1-carbonyl)-[1,4′-bipiperidin]-4-yl)-2-(4-phenoxyphenyl)-4,5,6,7-tetrahydropyrazolo[1,5-a]pyrimidine-3-carboxamide], for which the IC50 with Mino cells and in the assay on JeKo-1 cells was 1000 to 10000 nM in each case. This molecule also had a Dmax on BTK of over 90%. Further, the DC50 at BTK was 10 to 50 nM.
In the case of `NC(=O)c1c(-c2ccc(Oc3ccccc3)cc2)nn2c1NCCC2C1CCN(C2CCN(C(=O)N3CCC(CN4CCC(c5ccc6c(c5)C(=O)N(C5CCC(=O)NC5=O)C6=O)CC4)CC3)CC2)CC1` (centres unmarked) [Compound 355, 7-(1′-(4-((4-(2-(2,6-dioxopiperidin-3-yl)-1,3-dioxoisoindolin-5-yl)piperidin-1-yl)methyl)piperidine-1-carbonyl)-[1,4′-bipiperidin]-4-yl)-2-(4-phenoxyphenyl)-4,5,6,7-tetrahydropyrazolo[1,5-a]pyrimidine-3-carboxamide], the IC50 with Mino cells was in the range of 1000 to 10000 nM. The IC50 in the assay on JeKo-1 cells lay within 1000 to 10000 nM. At BTK, this molecule showed a Dmax of over 90% and a DC50 of under 10 nM.
For the molecule `NC(=O)c1c(-c2ccc(Oc3ccccc3)cc2)nn2c1NCCC2C1CCN(C2CCN(C(=O)N3CCC(CN4CCC(c5ccc6c(c5)CN(C5CCC(=O)NC5=O)C6=O)CC4)CC3)CC2)CC1` (centres unmarked) [Compound 356, 7-(1′-(4-((4-(2-(2,6-dioxopiperidin-3-yl)-1-oxoisoindolin-5-yl)piperidin-1-yl)methyl)piperidine-1-carbonyl)-[1,4′-bipiperidin]-4-yl)-2-(4-phenoxyphenyl)-4,5,6,7-tetrahydropyrazolo[1,5-a]pyrimidine-3-carboxamide], the IC50 in the assay with Mino cells was under 1000 nM; in the assay on JeKo-1 cells, 1000 to 10000 nM. At BTK, this molecule had a Dmax of over 90%. Moreover, the DC50 on BTK is under 10 nM.
For `NC(=O)c1c(-c2ccc(Oc3ccccc3)cc2)nn2c1NCCC2C1CCN(CC2CCN(C(=O)N3CCN(c4ccc5c(c4)C(=O)N(C4CCC(=O)NC4=O)C5=O)CC3)CC2)CC1` (centres unmarked) [Compound 357, 7-(1-((1-(4-(2-(2,6-dioxopiperidin-3-yl)-1,3-dioxoisoindolin-5-yl)piperazine-1-carbonyl)piperidin-4-yl)methyl)piperidin-4-yl)-2-(4-phenoxyphenyl)-4,5,6,7-tetrahydropyrazolo[1,5-a]pyrimidine-3-carboxamide] the same measures were over 10000 nM, over 10000 nM, over 50% and over 50 nM.
Consider `NC(=O)c1c(-c2ccc(Oc3ccccc3)cc2)nn2c1NCCC2C1CCN(CC2CCN(C(=O)N3CCN(c4ccc5c(c4)CN(C4CCC(=O)NC4=O)C5=O)CC3)CC2)CC1` (centres unmarked) [Compound 358, 7-(1-((1-(4-(2-(2,6-dioxopiperidin-3-yl)-1-oxoisoindolin-5-yl)piperazine-1-carbonyl)piperidin-4-yl)methyl)piperidin-4-yl)-2-(4-phenoxyphenyl)-4,5,6,7-tetrahydropyrazolo[1,5-a]pyrimidine-3-carboxamide], for which the IC50 with Mino cells and in the assay with JeKo-1 cells was over 10000 nM throughout. The molecule also had a Dmax at BTK of over 50%. The same molecule came in with a DC50 at BTK of over 50 nM.
As to `NC(=O)c1c(-c2ccc(Oc3ccccc3)cc2)nn2c1NCCC2C1CCN(CC2CCN(C(=O)N3CCN(Cc4ccc5c(c4)C(=O)N(C4CCC(=O)NC4=O)C5=O)CC3)CC2)CC1` (centres unmarked) [Compound 359, 7-(1-((1-(4-((2-(2,6-dioxopiperidin-3-yl)-1,3-dioxoisoindolin-5-yl)methyl)piperazine-1-carbonyl)piperidin-4-yl)methyl)piperidin-4-yl)-2-(4-phenoxyphenyl)-4,5,6,7-tetrahydropyrazolo[1,5-a]pyrimidine-3-carboxamide], the IC50 with Mino cells is over 10000 nM. Further, the IC50 with JeKo-1 cells is over 10000 nM. Besides, at BTK, the Dmax was over 50% and the DC50 was over 50 nM.
Consider `NC(=O)c1c(-c2ccc(Oc3ccccc3)cc2)nn2c1NCCC2C1CCN(CC2CCN(C(=O)N3CCN(Cc4ccc5c(c4)CN(C4CCC(=O)NC4=O)C5=O)CC3)CC2)CC1` (centres unmarked) [Compound 360, 7-(1-((1-(4-((2-(2,6-dioxopiperidin-3-yl)-1-oxoisoindolin-5-yl)methyl)piperazine-1-carbonyl)piperidin-4-yl)methyl)piperidin-4-yl)-2-(4-phenoxyphenyl)-4,5,6,7-tetrahydropyrazolo[1,5-a]pyrimidine-3-carboxamide], for which the IC50 in the assay with Mino cells is over 10000 nM. Besides, in the assay on JeKo-1 cells, the IC50 was over 10000 nM. In addition, at BTK, the Dmax is over 75% and the DC50 was over 50 nM.
